Laboratory results reported in article PMC9154192 (PLoS Biology, 2022).
Values after ≈ are worked out from the molar mass of the structure shown. Where two headings read alike, the source gives them in different places.

Assays:
M. tuberculosis H37Rv = assay: microbe, parasite or virus in culture; format: cell-based, Mycobacterium tuberculosis; conditions: Mycobacterium tuberculosis, H37RV; read-out: MIC
M. abscessus = assay: microbe, parasite or virus in culture; format: cell-based, Mycobacterium abscessus; conditions: Mycobacteroides abscessus
M. arupense = assay: microbe, parasite or virus in culture; format: cell-based, Mycobacterium arupense; conditions: Mycolicibacter arupensis
M. avium = assay: microbe, parasite or virus in culture; format: cell-based; conditions: Mycobacterium avium
M. bolletii = assay: microbe, parasite or virus in culture; format: cell-based, Mycobacterium bolletii; conditions: Mycobacteroides abscessus
M. chitae = assay: microbe, parasite or virus in culture; format: cell-based, Mycobacterium chitae; conditions: Mycolicibacterium chitae
M. colombiense = assay: microbe, parasite or virus in culture; format: cell-based; conditions: Mycobacterium colombiense
M. goodie = assay: microbe, parasite or virus in culture; format: cell-based; conditions: Mycobacterium
M. gordonae = assay: microbe, parasite or virus in culture; format: cell-based; conditions: Mycobacterium gordonae
M. intracellulare = assay: microbe, parasite or virus in culture; format: cell-based; conditions: Mycobacterium intracellulare
M. neoaurum = assay: microbe, parasite or virus in culture; format: cell-based, Mycobacterium neoaurum; conditions: Mycolicibacterium neoaurum
M. phlei = assay: microbe, parasite or virus in culture; format: cell-based, Mycobacterium phlei; conditions: Mycolicibacterium phlei
M. phocaicum = assay: microbe, parasite or virus in culture; format: cell-based, Mycobacterium phocaicum; conditions: Mycolicibacterium phocaicum
M. szulgai = assay: microbe, parasite or virus in culture; format: cell-based; conditions: Mycobacterium szulgai
Acinetobacter baumannii = assay: Broth dilution MIC (CLSI); format: cell-based
From the text: (§1) Bacteria (Acinetobacter baumannii NCCP 14782, Citrobacter freundii NCCP 14766, Enterobacter aerogenes NCCP 14761, Escherichia coli NCCP 14762, Escherichia coli O157 NCCP 14541, Klebsiella pneumoniae NCCP 14764, Proteus mirabilis NCCP 14763, Proteus vulgaris NCCP 14765, Pseudomonas aeruginosa NCCP 14781, Salmonella Enteritidis NCCP 14771, Salmonella Paratyphi A NCCP 14759, Salmonella Typhimurium NCCP 16207, Serratia marcescens NCCP 14770, Shigella boydii NCCP 14745, Shigella dysenteriae NCCP 14746, Shigella flexneri NCCP 14744, Shigella sonnei NCCP 14773, Bacillus subtilis NCCP 11101, Corynebacterium diphtheriae NCCP 10353, Staphylococcus aureus MSSA NCCP 14780, Staphylococcus aureus MRSA NCCP 14769, Staphylococcus epidermidis NCCP 14768, Streptococcus pneumoniae NCCP 14774) and fungi (Aspergillus fumigatus NCCP 22454, Candida albicans NCCP 32557, Cryptococcus neoformans NCCP 32559, Microsporum canis NCCP 22454, Rhizopus oryzae NCCP 22458, Saccharomyces cerevisiae NCCP 32558, Trichophyton rubrum NCCP 22456) strains were obtained from the National Culture Collection for Pathogens (NCCP) (Chungbuk, Korea). The MIC of each agent was determined following the Clinical and Laboratory Standards Institute (CLSI).[40]

Aspergillus fumigatus = assay: Broth dilution MIC (CLSI); format: cell-based
From the text: as §1

Bacillus subtilis = assay: Broth dilution MIC (CLSI); format: cell-based
From the text: as §1

Candida albicans = assay: Broth dilution MIC (CLSI); format: cell-based
From the text: as §1

Citrobacter freundii = assay: Broth dilution MIC (CLSI); format: cell-based
From the text: as §1

[1] = system: Corynebacterium diphtheriae; assay: Broth dilution MIC (CLSI); format: cell-based
From the text: as §1

Cryptococcus neoformans = assay: Broth dilution MIC (CLSI); format: cell-based
From the text: as §1

Enterobacter aerogenes = assay: Broth dilution MIC (CLSI); format: cell-based; conditions: Klebsiella aerogenes
From the text: as §1

Escherichia coli O157 = assay: Broth dilution MIC (CLSI); format: cell-based
From the text: as §1

Escherichia coli = assay: Broth dilution MIC (CLSI); format: cell-based
From the text: as §1

Klebsiella pneumoniae = assay: Broth dilution MIC (CLSI); format: cell-based
From the text: as §1

Microsporum canis = assay: Broth dilution MIC (CLSI); format: cell-based
From the text: as §1

Proteus mirabilis = assay: Broth dilution MIC (CLSI); format: cell-based
From the text: as §1

Proteus vulgaris = assay: Broth dilution MIC (CLSI); format: cell-based
From the text: as §1

Pseudomonas aeruginosa = assay: Broth dilution MIC (CLSI); format: cell-based
From the text: as §1

Rhizopus oryzae = assay: Broth dilution MIC (CLSI); format: cell-based; conditions: Rhizopus arrhizus
From the text: as §1

Saccharomyces cerevisiae = assay: Broth dilution MIC (CLSI); format: cell-based
From the text: as §1

Salmonella Enteritidis = assay: Broth dilution MIC (CLSI); format: cell-based; conditions: Salmonella enterica
From the text: as §1

Salmonella Paratyphi A = assay: Broth dilution MIC (CLSI); format: cell-based; conditions: Salmonella enterica
From the text: as §1

Salmonella Typhimurium = assay: Broth dilution MIC (CLSI); format: cell-based; conditions: Salmonella enterica
From the text: as §1

Serratia marcescens = assay: Broth dilution MIC (CLSI); format: cell-based
From the text: as §1

Shigella boydii = assay: Broth dilution MIC (CLSI); format: cell-based
From the text: as §1

Shigella dysenteriae = assay: Broth dilution MIC (CLSI); format: cell-based
From the text: as §1

Shigella flexneri = assay: Broth dilution MIC (CLSI); format: cell-based
From the text: as §1

Shigella sonnei = assay: Broth dilution MIC (CLSI); format: cell-based
From the text: as §1

[2] = system: Staphylococcus aureus, MRSA; assay: Broth dilution MIC (CLSI); format: cell-based
From the text: as §1

[3] = system: Staphylococcus aureus, MSSA; assay: Broth dilution MIC (CLSI); format: cell-based
From the text: as §1

[4] = system: Staphylococcus epidermidis; assay: Broth dilution MIC (CLSI); format: cell-based
From the text: as §1

Streptococcus pneumoniae = assay: Broth dilution MIC (CLSI); format: cell-based
From the text: as §1

Trichophyton rubrum = assay: Broth dilution MIC (CLSI); format: cell-based
From the text: as §1

SMILES: [H]/N=C(/N)N[C@H]1[C@H](O)[C@@H](O)[C@H](O[C@@H]2O[C@@H](C)[C@](O)(C=O)[C@H]2O[C@@H]2O[C@@H](CO)[C@H](O)[C@@H](O)[C@@H]2NC)[C@@H](N/C(N)=N\[H])[C@@H]1O [STR, streptomycin]
- MIC (M. tuberculosis H37Rv): 0.4 µg/mL (≈ 0.688 µM)
- MIC (M. abscessus): 25 µg/mL (≈ 43 µM)
- MIC (M. arupense): 0.1 µg/mL (≈ 0.172 µM)
- MIC (M. avium): 3.1 µg/mL (≈ 5.33 µM)
- MIC (M. bolletii): 25 µg/mL (≈ 43 µM)
- MIC (M. chitae): > 100 µg/mL
- MIC (M. colombiense): 0.8 µg/mL (≈ 1.38 µM)
- MIC (M. goodie): 0.2 µg/mL (≈ 0.344 µM)
- MIC (M. gordonae): 100 µg/mL (≈ 172 µM)
- MIC (M. intracellulare): 0.8 µg/mL (≈ 1.38 µM)
- MIC (M. neoaurum): 0.8 µg/mL (≈ 1.38 µM)
- MIC (M. phlei): 0.2 µg/mL (≈ 0.344 µM)
- MIC (M. phocaicum): 6.3 µg/mL (≈ 10.8 µM)
- MIC (M. szulgai): 0.2 µg/mL (≈ 0.344 µM)
- MIC (Acinetobacter baumannii; read-out: MIC): 6.3 µg/mL (≈ 10.8 µM)
- MIC (Aspergillus fumigatus; read-out: MIC): > 100 µg/mL
- MIC (Bacillus subtilis; read-out: MIC): 0.8 µg/mL (≈ 1.38 µM)
- MIC (Candida albicans; read-out: MIC): > 100 µg/mL
- MIC (Citrobacter freundii; read-out: MIC): 1.6 µg/mL (≈ 2.75 µM)
- MIC ([1]; read-out: MIC): 3.1 µg/mL (≈ 5.33 µM)
- MIC (Cryptococcus neoformans; read-out: MIC): > 100 µg/mL
- MIC (Enterobacter aerogenes; Enterobacter aerogenes, read-out: MIC): 3.1 µg/mL (≈ 5.33 µM)
- MIC (Escherichia coli O157; read-out: MIC): 6.3 µg/mL (≈ 10.8 µM)
- MIC (Escherichia coli; read-out: MIC): 25 µg/mL (≈ 43 µM)
- MIC (Klebsiella pneumoniae; read-out: MIC): 3.1 µg/mL (≈ 5.33 µM)
- MIC (Microsporum canis; read-out: MIC): > 100 µg/mL
- MIC (Proteus mirabilis; read-out: MIC): 6.3 µg/mL (≈ 10.8 µM)
- MIC (Proteus vulgaris; read-out: MIC): 25 µg/mL (≈ 43 µM)
- MIC (Pseudomonas aeruginosa; read-out: MIC): 25 µg/mL (≈ 43 µM)
- MIC (Rhizopus oryzae; Rhizopus oryzae, read-out: MIC): > 100 µg/mL
- MIC (Saccharomyces cerevisiae; read-out: MIC): > 100 µg/mL
- MIC (Salmonella Enteritidis; Salmonella Enteritidis, read-out: MIC): 3.1 µg/mL (≈ 5.33 µM)
- MIC (Salmonella Paratyphi A; Salmonella Paratyphi A, read-out: MIC): 6.3 µg/mL (≈ 10.8 µM)
- MIC (Salmonella Typhimurium; Salmonella Typhimurium, read-out: MIC): 25 µg/mL (≈ 43 µM)
- MIC (Serratia marcescens; read-out: MIC): 50 µg/mL (≈ 86 µM)
- MIC (Shigella boydii; read-out: MIC): 25 µg/mL (≈ 43 µM)
- MIC (Shigella dysenteriae; read-out: MIC): 25 µg/mL (≈ 43 µM)
- MIC (Shigella flexneri; read-out: MIC): 25 µg/mL (≈ 43 µM)
- MIC (Shigella sonnei; read-out: MIC): 3.1 µg/mL (≈ 5.33 µM)
- MIC ([2]; read-out: MIC): 3.1 µg/mL (≈ 5.33 µM)
- MIC ([3]; read-out: MIC): 6.3 µg/mL (≈ 10.8 µM)
- MIC ([4]; read-out: MIC): 1.6 µg/mL (≈ 2.75 µM)
- MIC (Streptococcus pneumoniae; read-out: MIC): 12.5 µg/mL (≈ 21.5 µM)
- MIC (Trichophyton rubrum; read-out: MIC): > 100 µg/mL

SMILES: CO[C@H]1/C=C/O[C@@]2(C)Oc3c(C)c(O)c4c(O)c(c(/C=N/N5CCN(C)CC5)c(O)c4c3C2=O)NC(=O)/C(C)=C\C=C\[C@H](C)[C@H](O)[C@@H](C)[C@@H](O)[C@@H](C)[C@H](OC(C)=O)[C@@H]1C [RIF, rifampicin, reference compound]
- MIC (M. tuberculosis H37Rv): 0.1 µg/mL (≈ 0.122 µM)
- MIC (M. abscessus): > 100 µg/mL
- MIC (M. arupense): 0.1 µg/mL (≈ 0.122 µM)
- MIC (M. avium): 1.6 µg/mL (≈ 1.94 µM)
- MIC (M. bolletii): > 100 µg/mL
- MIC (M. chitae): 6.3 µg/mL (≈ 7.66 µM)
- MIC (M. colombiense): 0.2 µg/mL (≈ 0.243 µM)
- MIC (M. goodie): 100 µg/mL (≈ 122 µM)
- MIC (M. gordonae): 3.1 µg/mL (≈ 3.77 µM)
- MIC (M. intracellulare): < 0.1 µg/mL
- MIC (M. neoaurum): 0.2 µg/mL (≈ 0.243 µM)
- MIC (M. phlei): 25 µg/mL (≈ 30.4 µM)
- MIC (M. phocaicum): 25 µg/mL (≈ 30.4 µM)
- MIC (M. szulgai): < 0.1 µg/mL
- MIC (Acinetobacter baumannii): 3.1 µg/mL (≈ 3.77 µM)
- MIC (Aspergillus fumigatus): > 100 µg/mL
- MIC (Bacillus subtilis): < 0.1 µg/mL
- MIC (Candida albicans): > 100 µg/mL
- MIC (Citrobacter freundii): 25 µg/mL (≈ 30.4 µM)
- MIC [1]: 0.05 µg/mL (≈ 0.0608 µM)
- MIC (Cryptococcus neoformans): > 100 µg/mL
- MIC (Enterobacter aerogenes): 6.3 µg/mL (≈ 7.66 µM)
- MIC (Escherichia coli O157): 3.1 µg/mL (≈ 3.77 µM)
- MIC (Escherichia coli): 6.3 µg/mL (≈ 7.66 µM)
- MIC (Klebsiella pneumoniae): 6.3 µg/mL (≈ 7.66 µM)
- MIC (Microsporum canis): > 100 µg/mL
- MIC (Proteus mirabilis): 3.1 µg/mL (≈ 3.77 µM)
- MIC (Proteus vulgaris): 6.3 µg/mL (≈ 7.66 µM)
- MIC (Pseudomonas aeruginosa): 25 µg/mL (≈ 30.4 µM)
- MIC (Rhizopus oryzae): > 100 µg/mL
- MIC (Saccharomyces cerevisiae): > 100 µg/mL
- MIC (Salmonella Enteritidis; ENTERITIDIS): 12.5 µg/mL (≈ 15.2 µM)
- MIC (Salmonella Paratyphi A; PARATYPHI): 12.5 µg/mL (≈ 15.2 µM)
- MIC (Salmonella Typhimurium; TYPHIMURIUM): 12.5 µg/mL (≈ 15.2 µM)
- MIC (Serratia marcescens): 12.5 µg/mL (≈ 15.2 µM)
- MIC (Shigella boydii): 0.4 µg/mL (≈ 0.486 µM)
- MIC (Shigella dysenteriae): 1.6 µg/mL (≈ 1.94 µM)
- MIC (Shigella flexneri): 1.5 µg/mL (≈ 1.82 µM)
- MIC (Shigella sonnei): 3.1 µg/mL (≈ 3.77 µM)
- MIC [2]: 0.05 µg/mL (≈ 0.0608 µM)
- MIC [3]: 0.05 µg/mL (≈ 0.0608 µM)
- MIC [4]: 0.05 µg/mL (≈ 0.0608 µM)
- MIC (Streptococcus pneumoniae): 0.05 µg/mL (≈ 0.0608 µM)
- MIC (Trichophyton rubrum): > 100 µg/mL
